The text below walks through data of US20240208968A1, “ALPHA V BETA 6 AND ALPHA V BETA 1 INTEGRIN INHIBITORS AND USES THEREOF” (DiCE Molecules SV, Inc., priority 2021, published 2024).

In one assay the target is αvβ1 (Homo sapiens, UniProt P05556+P06756). In words: Solid Phase Integrin αvβ1 Assay. The assay is classed as binding. An outline of the steps: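 Compound competes for αvβ1 binding to immobilized TGFb1-LAP (1 µg/mL coat) in Mn2+ (1 mM MnCl2), 2% BSA binding buffer over 90 min at room temperature, integrin added at 0.2 µg/mL. Read-out: streptavidin-HRP/TMB; IC50 from Levenberg-Marquardt four-parameter fit.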

Another assay deals with αvβ6 (Homo sapiens, UniProt P06756+P18564). In words: Solid Phase Integrin αvβ6 Assay. The assay is classed as binding. An outline of the steps:
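Inhibition of αvβ6 binding to immobilized recombinant TGFb1-LAP (1 μg/mL coating), 1 h at room temperature with 1 mM MnCl2 in BSA/TBST buffer, integrin diluted to 0.2 μg/mL before addition. Streptavidin-HRP/TMB read-out; four-parameter logistic fitting gave IC50.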

Sequence of αvβ6 (P06756 31-992 limits assumed): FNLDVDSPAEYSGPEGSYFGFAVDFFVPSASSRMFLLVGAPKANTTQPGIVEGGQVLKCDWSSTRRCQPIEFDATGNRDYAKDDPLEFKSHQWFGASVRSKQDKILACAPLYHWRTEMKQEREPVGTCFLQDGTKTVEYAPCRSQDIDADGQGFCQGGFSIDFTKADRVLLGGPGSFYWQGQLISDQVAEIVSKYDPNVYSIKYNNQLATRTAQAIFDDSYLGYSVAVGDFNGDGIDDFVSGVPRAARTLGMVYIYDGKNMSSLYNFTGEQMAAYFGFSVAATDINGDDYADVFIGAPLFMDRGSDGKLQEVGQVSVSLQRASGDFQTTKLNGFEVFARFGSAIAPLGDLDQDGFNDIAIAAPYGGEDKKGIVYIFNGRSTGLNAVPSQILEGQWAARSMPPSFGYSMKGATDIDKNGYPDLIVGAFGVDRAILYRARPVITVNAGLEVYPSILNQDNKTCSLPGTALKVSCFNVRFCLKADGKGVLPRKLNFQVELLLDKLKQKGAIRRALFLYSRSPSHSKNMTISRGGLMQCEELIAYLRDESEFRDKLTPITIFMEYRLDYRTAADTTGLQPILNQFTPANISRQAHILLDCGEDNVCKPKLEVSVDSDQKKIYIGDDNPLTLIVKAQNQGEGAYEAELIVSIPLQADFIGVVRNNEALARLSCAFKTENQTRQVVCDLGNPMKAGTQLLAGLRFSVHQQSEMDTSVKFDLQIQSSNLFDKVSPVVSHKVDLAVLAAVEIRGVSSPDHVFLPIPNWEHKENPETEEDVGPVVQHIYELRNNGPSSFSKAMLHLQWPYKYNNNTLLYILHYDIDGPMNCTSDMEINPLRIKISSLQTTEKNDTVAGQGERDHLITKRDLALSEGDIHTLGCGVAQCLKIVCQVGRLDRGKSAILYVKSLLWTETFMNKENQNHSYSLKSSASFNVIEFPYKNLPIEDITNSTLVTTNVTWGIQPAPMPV
Sequence of αvβ6 (P18564 22-707 limits assumed): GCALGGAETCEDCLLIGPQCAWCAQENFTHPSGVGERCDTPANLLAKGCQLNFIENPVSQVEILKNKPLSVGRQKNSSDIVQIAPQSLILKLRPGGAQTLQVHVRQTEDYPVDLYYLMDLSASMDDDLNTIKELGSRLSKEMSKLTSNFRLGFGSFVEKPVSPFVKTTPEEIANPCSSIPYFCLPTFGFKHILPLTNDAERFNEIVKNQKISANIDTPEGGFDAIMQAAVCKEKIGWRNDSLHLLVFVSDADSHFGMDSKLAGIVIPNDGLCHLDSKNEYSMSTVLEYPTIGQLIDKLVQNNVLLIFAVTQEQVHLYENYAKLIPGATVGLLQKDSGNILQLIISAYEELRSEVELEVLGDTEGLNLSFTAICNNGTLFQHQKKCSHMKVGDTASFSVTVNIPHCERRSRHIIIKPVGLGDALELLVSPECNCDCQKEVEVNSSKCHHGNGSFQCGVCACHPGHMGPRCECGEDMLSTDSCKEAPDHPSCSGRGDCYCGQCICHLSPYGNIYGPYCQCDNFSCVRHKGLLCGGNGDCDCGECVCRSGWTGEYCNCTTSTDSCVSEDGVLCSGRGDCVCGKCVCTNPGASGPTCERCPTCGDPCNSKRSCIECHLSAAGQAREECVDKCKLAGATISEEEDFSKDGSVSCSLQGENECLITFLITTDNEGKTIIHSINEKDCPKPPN
Sequence of αvβ1 (P06756 31-992 limits assumed): as the sequence (P06756 31-992 limits assumed) above
Sequence of αvβ1 (P05556 21-728 limits assumed): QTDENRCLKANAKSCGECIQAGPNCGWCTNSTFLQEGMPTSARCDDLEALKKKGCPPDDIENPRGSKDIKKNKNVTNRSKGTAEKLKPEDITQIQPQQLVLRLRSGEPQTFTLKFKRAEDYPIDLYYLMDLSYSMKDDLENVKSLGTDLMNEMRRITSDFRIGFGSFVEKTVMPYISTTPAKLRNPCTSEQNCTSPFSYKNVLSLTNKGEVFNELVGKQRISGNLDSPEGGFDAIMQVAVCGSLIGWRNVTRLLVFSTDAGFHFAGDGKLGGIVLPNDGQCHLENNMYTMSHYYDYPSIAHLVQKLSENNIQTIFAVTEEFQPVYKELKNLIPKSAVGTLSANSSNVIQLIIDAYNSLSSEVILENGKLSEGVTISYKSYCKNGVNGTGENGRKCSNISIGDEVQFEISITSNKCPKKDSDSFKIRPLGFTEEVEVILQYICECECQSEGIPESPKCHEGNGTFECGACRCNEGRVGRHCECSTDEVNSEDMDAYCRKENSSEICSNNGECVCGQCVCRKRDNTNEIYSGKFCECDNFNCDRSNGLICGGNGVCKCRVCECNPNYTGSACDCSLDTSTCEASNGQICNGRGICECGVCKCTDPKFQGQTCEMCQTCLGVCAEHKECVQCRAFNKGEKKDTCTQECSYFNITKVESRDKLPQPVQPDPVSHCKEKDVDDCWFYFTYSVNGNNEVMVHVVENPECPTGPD

Take `O=C(NC[C@H](C(=O)O)c1ccccc1-c1ccccc1)[C@@H]1CCCN(CCCc2ccc3c(n2)NCCC3)C1` [Compound 341]: the half-inhibitory concentration (IC50) on αvβ1 and on αvβ6 was over 1000 nM throughout.

On to `O=C(NC[C@H](C(=O)O)c1ccc(-c2ccccc2)cc1)[C@@H]1CCCN(CCCc2ccc3c(n2)NCCC3)C1` [Compound 342], for which the IC50 against αvβ1 and at αvβ6 was under 100 nM each time.

As to `O=C(O)C[C@@H](NC(=O)[C@@H]1CCCN(CCCc2ccc3c(n2)NCCC3)C1)c1cccc(C2CC2)c1F` [Compound 344], the IC50 at αvβ1 and against αvβ6 was under 100 nM each time.

`O=C(O)C[C@@H](NC(=O)[C@@H]1CCCN(CCCc2ccc3c(n2)NCCC3)C1)c1ccccc1C1CC1` [Compound 345]: the concentration for half-maximal inhibition (IC50) at αvβ1 and against αvβ6 was over 1000 nM in each case.

`C[C@@H]1CC[C@H](C(=O)N[C@@H](CC(=O)O)c2ccccc2)CN1CCCc1ccc2c(n1)NCCC2` [Compound 346]: the IC50 at αvβ1 and at αvβ6 was under 100 nM in each case.

For `O=C(O)C[C@@H](NC(=O)[C@@H]1CCCN(CCCc2ccc3c(n2)NCCC3)C1)c1cc(F)cc(C2CC2)c1` [Compound 347], the 50% inhibitory concentration (IC50) against αvβ1 and against αvβ6 was under 100 nM in each case.

Take `Nc1nnc(C(=O)N[C@@H](CNC(=O)[C@@H]2CCCN(CCCc3ccc4c(n3)NCCC4)C2)C(=O)O)o1` [Compound 348]: the IC50 at αvβ1 and on αvβ6 was under 100 nM in each case.

For the molecule `O=C(O)C[C@H](O[C@@H]1CCCN(CCCc2ccc3c(n2)NCCC3)C1)c1ccccc1` [Compound 349], the half-inhibitory concentration (IC50) against αvβ1 and against αvβ6 was over 1000 nM throughout.

Turning to `O=C(O)[C@H](CO[C@@H]1CCCN(CCCc2ccc3c(n2)NCCC3)C1)c1ccccc1` [Compound 350], the half-inhibitory concentration (IC50) against αvβ1 and on αvβ6 was over 1000 nM throughout.

With `O=C(O)C[C@@H](O[C@@H]1CCCN(CCCc2ccc3c(n2)NCCC3)C1)c1ccccc1` [Compound 351], the IC50 on αvβ1 and on αvβ6 was over 1000 nM in each case.

Take `O=C(O)[C@@H](CO[C@@H]1CCCN(CCCc2ccc3c(n2)NCCC3)C1)c1ccccc1` [Compound 352]: the IC50 at αvβ1 and at αvβ6 was over 1000 nM in each case.

In the case of `O=C(O)C[C@H](CO[C@@H]1CCCN(CCc2ccc3c(n2)NCCC3)C1)c1ccccc1` [Compound 353], the values for the IC50 against αvβ1 and on αvβ6 were over 1000 nM and 100 to 1000 nM, respectively.

For `O=C(O)C[C@@H](CO[C@@H]1CCCN(CCc2ccc3c(n2)NCCC3)C1)c1ccccc1` [Compound 354], the 50% inhibitory concentration (IC50) against αvβ1 and on αvβ6 was over 1000 nM in each case.

For the molecule `O=C(O)C[C@@H](CO[C@@H]1CCCN(Cc2ccc3c(n2)NCCC3)C1)c1ccccc1` [Compound 355], the 50% inhibitory concentration (IC50) (commonly the concentration needed to halve the response being measured) is 100 to 1000 nM against αvβ1 and over 1000 nM against αvβ6.

For `O=C(O)C[C@H](CO[C@@H]1CCCN(Cc2ccc3c(n2)NCCC3)C1)c1ccccc1` [Compound 356], the half-maximal inhibitory concentration (IC50) at αvβ1 is 100 to 1000 nM; against αvβ6 it was over 1000 nM.

Regarding `O=C(O)C[C@H](CO[C@@H]1CCCN(CCCCc2ccc3c(n2)NCCC3)C1)c1ccccc1` [Compound 357], the IC50 against αvβ1 and on αvβ6 was 100 to 1000 nM in each case.

Turning to `O=C(O)C[C@@H](CO[C@@H]1CCCN(CCCCc2ccc3c(n2)NCCC3)C1)c1ccccc1` [Compound 358], the figures for the concentration for half-maximal inhibition (IC50) against αvβ1 and against αvβ6 were under 100 nM and over 1000 nM, respectively.

Take `O=C(N[C@@H](CNC(=O)[C@@H]1CCCN(CCCc2ccc3c(n2)NCCC3)C1)C(=O)O)c1c(F)cc(N2CCOC[C@@H]2C(F)(F)F)cc1F` [Compound 359]: the IC50 on αvβ1 and at αvβ6 was under 100 nM each time.

Regarding `O=C(NC[C@H](Nc1ccc(-c2ccccc2)nc1)C(=O)O)[C@@H]1CCCN(CCCc2ccc3c(n2)NCCC3)C1` [Compound 360], the half-inhibitory concentration (IC50) on αvβ1 and at αvβ6 was under 100 nM each time.

With `O=C(NC[C@H](Nc1cncc(-c2ccccc2)c1)C(=O)O)[C@@H]1CCCN(CCCc2ccc3c(n2)NCCC3)C1` [Compound 361], the 50% inhibitory concentration (IC50) against αvβ1 and against αvβ6 was under 100 nM throughout.

`O=C(N[C@@H](CNC(=O)[C@@H]1CCCN(CCCc2ccc3c(n2)NCCC3)C1)C(=O)O)c1c(Cl)cccc1Cl` [Compound 362]: the IC50 on αvβ1 and against αvβ6 was under 100 nM throughout.

On to `O=C(N[C@@H](CNC(=O)[C@@H]1CCCN(CCCc2ccc3c(n2)NCCC3)C1)C(=O)O)c1cc(Cl)cc(Cl)c1` [Compound 363], for which the 50% inhibitory concentration (IC50) at αvβ1 and on αvβ6 was under 100 nM in each case.

Consider `O=C(N[C@@H](CNC(=O)[C@@H]1CCCN(CCCc2ccc3c(n2)NCCC3)C1)C(=O)O)c1cc(Cl)ccc1Cl` [Compound 364], for which the half-maximal inhibitory concentration (IC50) on αvβ1 and against αvβ6 was under 100 nM throughout.

As to `O=C(N[C@@H](CNC(=O)[C@@H]1CCCN(CCCc2ccc3c(n2)NCCC3)C1)C(=O)O)c1cccc(Cl)c1Cl` [Compound 365], the IC50 at αvβ1 and on αvβ6 was under 100 nM in each case.

Take `O=C(N[C@@H](CNC(=O)[C@@H]1CCCN(CCCc2ccc3c(n2)NCCC3)C1)C(=O)O)C1CCC(F)(F)CC1` [Compound 366]: the 50% inhibitory concentration (IC50) against αvβ1 and on αvβ6 was under 100 nM each time.

On to `O=C(N[C@@H](CNC(=O)[C@@H]1CCCN(CCCc2ccc3c(n2)NCCC3)C1)C(=O)O)c1ccc(F)c(Cl)c1` [Compound 367], for which the IC50 against αvβ1 and at αvβ6 was under 100 nM throughout.

As to `O=C(N[C@@H](CNC(=O)[C@@H]1CCCN(CCCc2ccc3c(n2)NCCC3)C1)C(=O)O)c1ccc(Cl)c(Cl)c1` [Compound 368], the half-maximal inhibitory concentration (IC50) on αvβ1 and on αvβ6 was under 100 nM throughout.

As to `O=C(N[C@@H](CNC(=O)[C@@H]1CCCN(CCCc2ccc3c(n2)NCCC3)C1)C(=O)O)c1ccc(C2CC2)cc1` [Compound 369], the 50% inhibitory concentration (IC50) at αvβ1 and at αvβ6 was under 100 nM in each case.

With `O=C(N[C@@H](CNC(=O)[C@@H]1CCCN(CCCc2ccc3c(n2)NCCC3)C1)C(=O)O)c1ccccc1C1CC1` [Compound 371], the IC50 on αvβ1 and against αvβ6 was under 100 nM in each case.

On to `O=C(N[C@@H](CNC(=O)[C@@H]1CCCN(CCCc2ccc3c(n2)NCCC3)C1)C(=O)O)c1ccc(Cl)cc1` [Compound 372], for which the half-maximal inhibitory concentration (IC50) at αvβ1 and on αvβ6 was under 100 nM throughout.

Consider `O=C(N[C@@H](CNC(=O)[C@@H]1CCCN(CCCc2ccc3c(n2)NCCC3)C1)C(=O)O)c1cccc(Cl)c1` [Compound 373], for which the half-inhibitory concentration (IC50) against αvβ1 and against αvβ6 was under 100 nM each time.

For `O=C(O)C[C@@H](NC(=O)[C@@H]1CCCN(CCCc2ccc3c(n2)NCCC3)C1)c1cnc2ccccc2n1` [Compound 374], the IC50 was 100 to 1000 nM on αvβ1 and under 100 nM at αvβ6.

`O=C(NC[C@@H](Nc1ccc(-c2ccccc2)nc1)C(=O)O)[C@@H]1CCCN(CCCc2ccc3c(n2)NCCC3)C1` [Compound 375]: the IC50 on αvβ1 and against αvβ6 was under 100 nM throughout.

As for `O=C(NC[C@@H](Nc1cncc(-c2ccccc2)c1)C(=O)O)[C@@H]1CCCN(CCCc2ccc3c(n2)NCCC3)C1` [Compound 376], the IC50 against αvβ1 and on αvβ6 was under 100 nM in each case.

As for `O=C(O)CC(NC(=O)[C@@H]1CCCN(CCCc2ccc3c(n2)NCCC3)C1)c1cccc(O)c1` (stereo partly drawn) [Compound 377], the concentration for half-maximal inhibition (IC50) against αvβ1 and against αvβ6 was under 100 nM in each case.

Regarding `C[C@H]1CCN(CCCc2ccc3c(n2)NCCC3)C[C@H]1C(=O)N[C@@H](CC(=O)O)c1ccccc1` [Compound 378], the IC50 against αvβ1 is over 1000 nM; at αvβ6 it was 100 to 1000 nM.

For the molecule `C[C@@H]1C[C@H](C(=O)N[C@@H](CC(=O)O)c2ccccc2)CN(CCCc2ccc3c(n2)NCCC3)C1` [Compound 379], the 50% inhibitory concentration (IC50) against αvβ1 and against αvβ6 was under 100 nM throughout.

With `C[C@H]1C[C@H](C(=O)N[C@@H](CC(=O)O)c2ccccc2)CN(CCCc2ccc3c(n2)NCCC3)C1` [Compound 380], the values for the IC50 against αvβ1 and at αvβ6 were 100 to 1000 nM and under 100 nM, respectively.

As for `O=C(O)[C@@H](CCO[C@@H]1CCCN(Cc2ccc3c(n2)NCCC3)C1)NC(=O)C12CCC(CC1)CC2` [Compound 381], the half-maximal inhibitory concentration (IC50) against αvβ1 and against αvβ6 was under 100 nM each time.

With `O=C(O)[C@@H](CO[C@@H]1CCCN(CCCc2ccc3c(n2)NCCC3)C1)NC(=O)C12CCC(CC1)CC2` [Compound 382], the concentration for half-maximal inhibition (IC50) at αvβ1 and against αvβ6 was over 1000 nM in each case.

Consider `O=C(O)[C@@H](CCO[C@@H]1CCCN(CCc2ccc3c(n2)NCCC3)C1)NC(=O)C12CCC(CC1)CC2` [Compound 383], for which the IC50 on αvβ1 is under 100 nM; on αvβ6, 100 to 1000 nM.

For `O=C(O)[C@@H](CCO[C@@H]1CCCN(CCCCc2ccc3c(n2)NCCC3)C1)NC(=O)C12CCC(CC1)CC2` [Compound 384], the IC50 on αvβ1 and against αvβ6 was over 1000 nM each time.

For `O=C(O)[C@H](CCO[C@@H]1CCCN(CCCCc2ccc3c(n2)NCCC3)C1)Nc1ncnc2ccccc12` [Compound 385], the IC50 is over 1000 nM on αvβ1 and 100 to 1000 nM against αvβ6.

Regarding `O=C(O)[C@H](CCO[C@@H]1CCCN(CCc2ccc3c(n2)NCCC3)C1)Nc1ncnc2ccccc12` [Compound 386], the half-inhibitory concentration (IC50) at αvβ1 and on αvβ6 was over 1000 nM throughout.

`O=C(O)[C@H](CCO[C@@H]1CCCN(Cc2ccc3c(n2)NCCC3)C1)Nc1ncnc2ccccc12` [Compound 387]: the results for the half-maximal inhibitory concentration (IC50) on αvβ1 and against αvβ6 were under 100 nM and 100 to 1000 nM, respectively.

Consider `O=C(O)[C@H](CO[C@@H]1CCCN(CCCc2ccc3c(n2)NCCC3)C1)Nc1ncnc2ccccc12` [Compound 388], for which the IC50 against αvβ1 was 100 to 1000 nM; on αvβ6, under 100 nM.

Consider `O=C(O)[C@@H](CO[C@@H]1CCCN(Cc2ccc3c(n2)NCCC3)C1)c1ccccc1` [Compound 389], for which the IC50 against αvβ1 and against αvβ6 was over 1000 nM throughout.

On to `O=C(O)C[C@@H](O[C@@H]1CCCN(Cc2ccc3c(n2)NCCC3)C1)c1ccccc1` [Compound 390], for which the half-maximal inhibitory concentration (IC50) against αvβ1 and on αvβ6 was over 1000 nM each time.
